Results taken from patent US7220864B2, “Dihydronaphthalene derivative compounds and agent comprising the derivative as active ingredient” (Ono Pharmaceutical Co., Ltd., priority 2000, dated 2007).

Tests used:
[1] = target: T1, human PPAR α (Homo sapiens, UniProt Q07869); test: Luciferase assay using human PPAR α (PPAR α agonistic activity); type: cell-based; conditions: compound 10 μM; CV-1 cells with Gal4-human PPAR α LBD chimera and luciferase reporter; luciferase activity of carbacyclin (10 μM) defined as 1.0
T1 construct: expressed in transfected cells; host or cells: CV-1 cells
T1 sequence (Q07869 167-468): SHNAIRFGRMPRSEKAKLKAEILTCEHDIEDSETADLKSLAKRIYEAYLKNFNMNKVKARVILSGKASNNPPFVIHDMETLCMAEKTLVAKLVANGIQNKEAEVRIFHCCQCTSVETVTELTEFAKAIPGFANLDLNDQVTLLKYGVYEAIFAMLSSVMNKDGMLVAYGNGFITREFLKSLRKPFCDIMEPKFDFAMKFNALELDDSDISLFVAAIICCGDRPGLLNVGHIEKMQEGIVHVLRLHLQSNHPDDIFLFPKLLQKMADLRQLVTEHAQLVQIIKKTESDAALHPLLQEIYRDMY

[2] = target: T2, human PPAR γ (Homo sapiens, UniProt P37231); test: Luciferase assay using human PPAR γ (PPAR γ agonistic activity); type: cell-based; conditions: compound 10 μM; CV-1 cells with Gal4-human PPAR γ LBD chimera and luciferase reporter; luciferase activity of troglitazone (10 μM) defined as 1.0
T2 construct: expressed in transfected cells; host or cells: CV-1 cells
T2 sequence (P37231 204-505): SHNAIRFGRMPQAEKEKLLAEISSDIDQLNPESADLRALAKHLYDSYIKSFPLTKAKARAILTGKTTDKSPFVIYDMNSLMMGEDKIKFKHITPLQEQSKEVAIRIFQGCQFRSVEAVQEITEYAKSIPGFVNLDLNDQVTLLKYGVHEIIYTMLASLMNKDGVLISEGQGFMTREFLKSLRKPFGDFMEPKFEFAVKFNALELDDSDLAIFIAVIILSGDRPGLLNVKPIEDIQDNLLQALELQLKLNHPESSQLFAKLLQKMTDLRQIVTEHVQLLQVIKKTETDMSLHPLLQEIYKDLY

SMILES: O=C(O)CCCCC1=CCCc2c(OCc3ccc4ccccc4n3)cccc21 [comprative compound]
- Relative Activity to a positive control compound (carbacyclin = 1) [1]: 0.01
- Relative Activity to a positive control compound (troglitazone = 1) [2]: 0.004
